According to patent US20230330118A1, “2-DEOXY-D-GLUCOSE FOR PREVENTION AND TREATMENT OF A VIRAL DISEASE, IN PARTICULAR OF COVID-19” (priority 2020, published 2023):
Read-outs that look alike come from different tables or passages of the source.

Legend:
rhinovirus [1] = details: Gualdoni et al. 2018; cited from earlier work
[2] = 2-DG uptake measurement in lung tissue lysates of mice treated by inhalation; type: in vivo; details: 7 days, 14 days
Description: The analysis involved six lung tissue sections of mice (both male and female) treated by inhalation with 2-DG at a concentration of 30 mM thrice a day for 24 hours, 7 days and two weeks. The tissues were weighed, suspended in 10 mM Tris-HCl lysis buffer (pH 8.0) and then subjected to homogenization with the use of homogenizer (MPW-302, Precision Mechanics). Each analyzed sample is described in table below:
The 2DG6P accumulation in cells was determined with the use of 2-Deoxyglucose (2-DG) Uptake Measurement Kit (Cat. No. CSR-OKP-PMG-K01TE; Cosmo Bio Co., LTD., Tokyo, Japan) according to the manufacturer's protocol.
1. Cell and tissue lysates were heat treated at 80° C. for 15 min and then centrifuged at 4° C., 15 000×g for 20 min.
2. The supernatants were transferred to new tubes and used as unknown samples for measurement method (point 5).
3. The 2DG6P standards were prepared by serial dilution of 1 mM 2DG6P in 1× Sample Diluent Buffer in the following ranges: 0; 0.3125; 0.625; 1.25; 2.5 and 5 μM.
4. 60 μL of Reagent Mix A (including NAD and low glucose-6-phosphate dehydrogenase (G6PDH)) were added to each well of 96-ell plate.
5. Then 2DG6P standard and unknown samples (20 μL) were added to each well and incubated for over 19 hours at room temperature.
6. […]
12. The optical density (OD) was read at 420 nm in every 2.5 min over a period of 30 min using a microplate reader preheated to 30° C.

[3] = system: Human Bronchial Epithelial Cells (HBEpiC); assay: Cell viability (CellTiter 96 AQueous), short exposure; type: cell-based; details: 15 minutes to 6 hours exposure
Description: (§1) Human Bronchial Epithelial Cells (HBEpiC) were obtained from Innoprot (Cat no. P10557, batch no. 7475) and cultured in Bronchial Epithelial Cell Medium (Innoprot, Cat no. P60151) supplemented with 0.2% gentamicin (Gibco, Life Technologies, USA, Cat. no. 15710-049) under standard cell culture conditions (5% CO2, 16% O2, 37° C.). HBEpiC at passage 2, were plated in Bronchial Epithelial Cell Medium at 10.0 thousand cells per well of a 96-well plate and left for 48 hours in an incubator. The plates were coated with collagen (Collagen I-cell surface coating kit, Innoprot, Cat no. P8188) prior to cell seeding. 2-deoxy-D-glucose (Sigma-Aldrich; Cat no. D8375) was added to the cells for 15 min, 30 min, 1 h, 2 h and 6 h.
Cells were exposed to the compound at the following concentrations of 2-deoxy-D-glucose in medium as a solvent: 200 mM; 100 mM; 50 mM; 25 mM; 12.5 mM; 6.25 mM.
In order to assess cell viability, medium containing 2-deoxy-D-glucose was removed, the fresh medium was added to the cells and CellTiter 96® AQueous Solution Assay (Promega) was used in accordance with the manufacturer's instructions, 20 μl of reagent was added per 100 μl of cell culture medium and cells were incubated at 5% CO2, 16% O2, 37° C. Absorbance was measured at 490 nm. The results obtained 1 hour after addition of the CellTiter reagent were analyzed in GraphPadPrism 5.01. […]

SARS-CoV-2 Spike Protein = assay: Western blot analysis of Spike protein glycosylation in human bronchial epithelial cells (HBEpiC) transduced with Spike lentiviral vectors; type: cell-based
SARS-CoV-2 [4] = type: cell-based; details: for TCID50/ml: Vero-E6, M.O.I 0.001
[5] = very high tolerance; cited from earlier work
SARS-CoV-2 [6] = type: cell-based
SARS-CoV-2 [7] = details: Bojkova et al. 2020; cited from earlier work
[8] = system: Human Bronchial Epithelial Cells (HBEpiC); assay: Cell viability (CellTiter 96 AQueous), long exposure; type: cell-based; details: 48 h exposure (FIG. 5)
Description: as §1, with “passage 6,” for “passage 2,”, “at 9.0” for “at 10.0”, “for 48” for “for 15 min, 30 min, 1 h, 2 h and 6”
Cells were exposed to compounds at the following concentrations of 2-deoxy-D-glucose in medium as a solvent: 100 mM; 50 mM; 25 mM; 12.5 mM; 6.25 mM; 3.13 mM.
In order to asses cell viability, CellTiter 96® AQueous Solution Assay (Promega) was used in accordance with the manufacturer's instructions, 20 μl of reagent was added per 100 μl of cell culture medium and cells were incubated at 5% CO2, 16% O2, 37° C. Absorbance was measured at 490 nm. The results obtained 4 hours after addition of the CellTiter reagent were analyzed in GraphPadPrism 5.01. Data normalization and a nonlinear regression model were applied in order to determine the IC50.

rhinovirus [9] = details: Gualdoni et al. 2018; cited from earlier work; remark: listed apart in the source
[10] = system: primary human bronchial epithelial cells; assay: Toxicity observed in PBEC during the 48 h antiviral incubation; type: cell-based; details: 48 h incubation
Description: Day 2. Pre-treatment of PBEC cells in 48 wells plate with 2-DG prior to SARS-CoV-2 infection (2 h), and treatment with 2-DG for 48 h. SARS-CoV-2 was added at MOI 10-1 (MOI 0.1) and removed after 2 hours. Then, the cell culture was washed with PBS (3×0.5 mL) and 300 μL of medium with 2-DG from 50 mM to 0.39 mM, or medium with or without remdesivir for control, were added.

SARS-CoV-2 [11] = type: cell-based; details: Vero E6

**Q.** With `O=CC[C@@H](O)[C@H](O)[C@H](O)CO` [Example 2-DG, 2-deoxy-D-glucose] as the molecule, how does the “infection and inflammation in a mouse model” value (rhinovirus [1]) read?
**A.** The value was “inhibited infection and inflammation”.

**Q.** And the “course of 2-DG accumulation over treatment time” value ([2]; inhalation 24 h)?
**A.** The value was “plateau effect”.

**Q.** What about the “2-DG accumulation in the lungs” value ([2]; inhalation of 30 mM 2-DG thrice a day for 24 h, OD 420 nm (FIG. 10)) of the same molecule?
**A.** Its value is “accumulated in the lungs”.

**Q.** And the “cytotoxic effects on epithelial cells” value [3]?
**A.** The value was “lack of cytotoxic effects”.

**Q.** What about the “inhibition of spike glycosylation at 15 mM” value (SARS-CoV-2 Spike Protein; 15 mM, FIG. 2) of the same molecule?
**A.** Its value is “total inhibition”.

**Q.** What about the “glycosylation of spike protein from SARS-CoV-2 virus” value (SARS-CoV-2 Spike Protein; 25 mM or 15 mM 2-DG for 24 h, Western blot (FIG. 2)) of the same molecule?
**A.** Its value is “inhibits glycosylation”.

**Q.** What about the “production of infectious SARS-CoV-2 particles (TCID50)” value (SARS-CoV-2 [4]; Vero E6, 2-DG added 8 hours after infection) of the same molecule?
**A.** The value was “strong decrease”.

**Q.** What about the TCID50/ml (SARS-CoV-2 [4]; Post-treatment (8 h.p.i), 2-DG 0.19 mM) of the same molecule?
**A.** Its TCID50/ml is 1.47E+07 TCID50/ml.

**Q.** And the TCID50/ml (SARS-CoV-2 [4]; Post-treatment (8 h.p.i), 2-DG 0.56 mM)?
**A.** The TCID50/ml was 3.16E+07 TCID50/ml.

**Q.** And the TCID50/ml (SARS-CoV-2 [4]; Post-treatment (8 h.p.i), 2-DG 1.67 mM)?
**A.** Its TCID50/ml is 3.16E+06 TCID50/ml.

**Q.** And the TCID50/ml (SARS-CoV-2 [4]; Post-treatment (8 h.p.i), 2-DG 5 mM)?
**A.** Its TCID50/ml is 3.16E+05 TCID50/ml.

**Q.** What about the TCID50/ml (SARS-CoV-2 [4]; Post-treatment (8 h.p.i), 2-DG 15 mM) of the same molecule?
**A.** The TCID50/ml was 3.16E+04 TCID50/ml.

**Q.** And the TCID50/ml (SARS-CoV-2 [4]; Post-treatment (8 h.p.i), 2-DG 45 mM)?
**A.** The TCID50/ml was 1.47E+01 TCID50/ml.

**Q.** And the TCID50/ml (SARS-CoV-2 [4]; Treatment (0 h.p.i), 2-DG 0.19 mM)?
**A.** The TCID50/ml was 6.81E+06 TCID50/ml.

**Q.** What about the TCID50/ml (SARS-CoV-2 [4]; Treatment (0 h.p.i), 2-DG 0.56 mM) of the same molecule?
**A.** The TCID50/ml was 3.16E+07 TCID50/ml.

**Q.** What about the TCID50/ml (SARS-CoV-2 [4]; Treatment (0 h.p.i), 2-DG 1.67 mM) of the same molecule?
**A.** Its TCID50/ml is 1.47E+07 TCID50/ml.

**Q.** What about the TCID50/ml (SARS-CoV-2 [4]; Treatment (0 h.p.i), 2-DG 5 mM) of the same molecule?
**A.** The TCID50/ml was 1.47E+05 TCID50/ml.

**Q.** What about the TCID50/ml (SARS-CoV-2 [4]; Treatment (0 h.p.i), 2-DG 15 mM) of the same molecule?
**A.** The TCID50/ml was 3.16E+02 TCID50/ml.

**Q.** What about the TCID50/ml (SARS-CoV-2 [4]; Treatment (0 h.p.i), 2-DG 45 mM) of the same molecule?
**A.** The TCID50/ml was 3.16E+00 TCID50/ml.

**Q.** And the “tolerated dose in clinical trials” value [5]?
**A.** The value was “up to 63 mg per kg body weight and day”.

**Q.** What about the “concentration from which production of infectious SARS-CoV-2 particles decreases” value (SARS-CoV-2 [6]; PBEC, 2 h pretreatment, MOI 0.1, 48 h, TCID50) of the same molecule?
**A.** The value was at least 0.78 mM.

**Q.** And the “concentration above which effect is equivalent to the positive control remdesivir” value (SARS-CoV-2 [6]; PBEC, remdesivir 6 μM)?
**A.** Its value is “above 0.78 mM”.

**Q.** What about the “concentration from which production of infectious SARS-CoV-2 particles massively decreases” value (SARS-CoV-2 [6]; PBEC, treatment only conditions, MOI 0.1, 48 h, TCID50) of the same molecule?
**A.** The value was at least 0.78 mM.

**Q.** What about the SARS-CoV-2 virus production (SARS-CoV-2 [6]; primary human bronchial epithelial cells, 0.39 to 50 mM) of the same molecule?
**A.** The SARS-CoV-2 virus production was “dose dependent decrease”.

**Q.** What about the SARS-CoV-2 replication (SARS-CoV-2 [7]) of the same molecule?
**A.** The SARS-CoV-2 replication was “inhibition”.

**Q.** And the “IC50 (cell viability)” value [8]?
**A.** The value was “very high”.

**Q.** What about the “rhinovirus replication in vitro” value (rhinovirus [9]) of the same molecule?
**A.** Its value is “decreasing rhinovirus replication”.

**Q.** What about the toxicity [10] of the same molecule?
**A.** Its toxicity is “No toxicity”.

**Q.** What about the “production of infectious SARS-CoV-2 particles (TCID50)” value (SARS-CoV-2 [11]; MOI 0.001, 0.39 to 50 mM, 24 h) of the same molecule?
**A.** Its value is “strong decrease”.

**Q.** And the “effect on qPCR experiments (gene E copy numbers) compared with TCID50” value (SARS-CoV-2 [11]; RT-qPCR)?
**A.** Its value is “less pronounced”.

**Q.** Which results are given for `CCC(CC)COC(=O)[C@H](C)N[P@](=O)(OC[C@H]1O[C@@](C#N)(c2ccc3c(N)ncnn23)[C@H](O)[C@@H]1O)Oc1ccccc1` [RMD, remdesivir]?
**A.** TCID50/ml (SARS-CoV-2 [4]; Post-treatment (8 h.p.i), RMD 6 μM): 6.81E+03 TCID50/ml; TCID50/ml (SARS-CoV-2 [4]; Treatment (0 h.p.i), RMD 6 μM): 6.81E+00 TCID50/ml
